According to patent US10227296B2, “Bis(sulfonamide) derivatives and their use as mPGES inhibitors” (Acturum Real Estate AB, priority 2014, dated 2019):

Legend:
human mPGES-1 = target: T1, human mPGES-1 (Homo sapiens, UniProt O14684); assay: Microsomal prostaglandin E synthase biochemical assay; conditions: microsomes containing human mPGES-1, PGH2 10.8 μM, GSH 2.5 mM, pH 6.8; average of at least n=2
T1 construct: host or cells: microsomes
T1 sequence (O14684 1-152): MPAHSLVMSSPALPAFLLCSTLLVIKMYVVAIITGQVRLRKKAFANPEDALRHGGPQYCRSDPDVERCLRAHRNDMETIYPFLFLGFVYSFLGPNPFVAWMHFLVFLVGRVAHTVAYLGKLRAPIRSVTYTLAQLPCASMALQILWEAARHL
Method: Compounds were tested as inhibitors of microsomal prostaglandin E synthase activity in microsomal prostaglandin E synthase assays and whole cell assays. These assays measure prostaglandin E2 (PGE2) synthesis, which is taken as a measure of prostaglandin E synthase activity. Microsomal prostaglandin E synthase biochemical assays used microsomal prostaglandin E synthase-1 in microsomal preparations. The source of the microsomes can be for example interleukin-1β-stimulated human A549 cells (which express human mPGES-1) or Sf9 cells transfected with plasmids encoding human mPGES-1 cDNA.
A solution of test compound was added to a diluted microsome preparation containing human mPGES-1 and pre-incubated for 15 minutes in potassium phosphate buffer pH 6.8 with cofactor glutathione (GSH). Corresponding solutions without test compound were used as positive controls, and corresponding solutions without test compound and without microsomes were used as negative controls. The enzymatic reaction was then started by addition of the substrate PGH2 in an organic solution (dry acetonitrile).
The typical reaction conditions of the enzymatic reaction were thus: Test compound: ranging from 60 μM to 0.002 μM, or zero in positive and negative controls; potassium phosphate buffer pH 6.8: 50 mM; GSH: 2.5 mM; mPGES-1-containing microsomes: 2 μg/mL (sample and positive controls) or 0 μg/mL (negative control); PGH2: 10.8 μM; Acetonitrile: 7.7% (v/v); DMSO: 0.6% (v/v). The reaction was stopped after one minute by adding an acidic solution (pH 1.9) of ferric chloride and citrate (final concentrations 7 mM and 47 mM respectively), by which the PGH2 was sequestered (the PGH2 is reduced to mainly 12-hydroxy heptadecatrineoic acid (12-HHT) which is not detected by the subsequent PGE2 detection step). The resulting solution was then pH neutralized by addition of potassium phosphate buffer, prior to diluting an aliquot of the resulting solution in a weak potassium phosphate buffer (50 mM, pH 6.8) containing 0.2% BSA (w/v). [Adapted from Jacobsson et al., Proc. Natl. Acad. Sci. USA, 1999, vol. 96, pp. 7220-7225] The PGE2 formed was quantified by use of a commercial HTRF based kit (catalogue #62PG2PEC or #62P2APEC from Cisbio International). 100% activity was defined as the PGE2 production in positive controls subtracted by the PGE2 production in the negative controls. IC50 values were then determined using standard procedures.
The potency is expressed as IC50 and the value indicated is an average of at least n=2.

[1] = test system: mPGES-1-dependent PGE2 production in human blood; assay: Whole blood assay (LPS-stimulated human blood, PGE2 production); format: cell-based; conditions: 0.1 μg/ml LPS, 16 hours, 37° C., PGE2 by HTRF, read-out: hWBA
Text: The whole blood assay [described by Patrignani, P. et al, Journal of Pharmacology and Experimental Therapeutics, 1994, vol. 271, pp 1705-1712] was used as the whole cell assay for testing the compounds. Whole blood provides a protein and cell rich environment for the study of biochemical efficacy of anti-inflammatory compounds, such as prostaglandin synthase inhibitors. To study the inhibitory activities of these compounds, human blood was stimulated with lipopolysaccharide (LPS) for typically 16 hours to induce mPGES-1 expression, after which the concentration of produced PGE2 was measured by competitive-immuno assay (homogeneous time-resolved fluorescence, HTRF) as read out for effectiveness against mPGES-1-dependent PGE2 production.
Human blood collected from human volunteers in heparinized tubes was incubated with 100 μM acetyl salicylic acid, in order to inhibit the constitutively expressed cyclooxygenase (COX)-1/COX-2 enzymes, and then stimulated with 0.1 μg/ml LPS to induce the expression of enzymes along the COX-2 pathway, e.g. COX-2 and mPGES-1. 100 μL of this blood was added to the wells of a 384-well plate containing 1 μL DMSO solutions of compounds typically in the final concentration range 316 μM to 0.01 μM. Naproxen was used as reference compound. The mix was incubated at 37° C. for 16 hours. Plasma was harvested by centrifugation and stored at −70° C. until further analysis of PGE2 levels. For the calculations, the 0%-activity value was represented by blood treated with acetyl salicylic acid, LPS and the reference compound (1 mM Naproxen). The 100%-activity value was represented by blood treated with aspirin, LPS and DMSO. [Reference: Patrignani, P. et al, Journal of Pharmacology and Experimental Therapeutics, 1994, vol. 271, pp 1705-1712]. The PGE2 formed was quantified, after dilution in a weak potassium phosphate buffer (50 mM, pH 6.8) containing 0.2% BSA (w/v), by use of a commercial HTRF based kit (catalogue #62PG2PEC or #62P2APEC from Cisbio International). IC50 values were then determined using standard procedures.

`NS(=O)(=O)c1ccccc1NS(=O)(=O)CCc1ccc(Cl)cc1OCCc1ccccc1` [Example 1, 2-(2-(4-chloro-2-phenethoxyphenyl)ethylsulfonamido)benzenesulfonamide] was tested, and the IC50 (human mPGES-1) was 6.96 nM and the IC50 [1] was 50.8 nM.
`COc1ccccc1CCOc1cc(Cl)ccc1CCS(=O)(=O)Nc1ccccc1S(N)(=O)=O` [Example 2, 2-(2-(4-chloro-2-(2-methoxyphenethoxy)phenyl)ethylsulfonamido)benzenesulfonamide] showed an IC50 (human mPGES-1) of 3.7 nM and an IC50 [1] of 3.4 nM.
In the case of `COc1cccc(CCOc2cc(Cl)ccc2CCS(=O)(=O)Nc2ccccc2S(N)(=O)=O)c1` [Example 3, 2-(2-(4-chloro-2-(3-methoxyphenethoxy)phenyl)ethylsulfonamido)benzenesulfonamide], the IC50 (human mPGES-1) is reported as 6.4 nM and the IC50 [1] is reported as 90 nM.
`COc1ccc(CCOc2cc(Cl)ccc2CCS(=O)(=O)Nc2ccccc2S(N)(=O)=O)cc1` [Example 4, 2-(2-(4-chloro-2-(4-methoxyphenethoxy)phenyl)ethylsulfonamido)benzenesulfonamide] gave an IC50 (human mPGES-1) of 26.4 nM and an IC50 [1] of 70.3 nM.
`N#Cc1ccccc1CCOc1cc(Cl)ccc1CCS(=O)(=O)Nc1ccccc1S(N)(=O)=O` [Example 5, 2-(2-(4-chloro-2-(2-cyanophenethoxy)phenyl)ethylsulfonamido)benzenesulfonamide] gave an IC50 (human mPGES-1) of 4.1 nM and an IC50 [1] of 10.4 nM.
`N#Cc1cccc(CCOc2cc(Cl)ccc2CCS(=O)(=O)Nc2ccccc2S(N)(=O)=O)c1` [Example 6, 2-(2-(4-chloro-2-(3-cyanophenethoxy)phenyl)ethylsulfonamido)benzenesulfonamide] was tested, and the IC50 (human mPGES-1) was 13.6 nM and the IC50 [1] was 77.4 nM.
`N#Cc1ccc(CCOc2cc(Cl)ccc2CCS(=O)(=O)Nc2ccccc2S(N)(=O)=O)cc1` [Example 7, 2-(2-(4-chloro-2-(4-cyanophenethoxy)phenyl)ethylsulfonamido)benzenesulfonamide] was tested, and the IC50 (human mPGES-1) was 19.9 nM and the IC50 [1] was 76.5 nM.
`Cn1ccc2c(CCOc3cc(Cl)ccc3CCS(=O)(=O)Nc3ccccc3S(N)(=O)=O)cccc21` [Example 8, 2-(2-(4-chloro-2-(2-(1-methyl-1H-indol-4-yl)ethoxy)phenyl)ethylsulfonamido)benzenesulfonamide] showed an IC50 (human mPGES-1) of 7.3 nM and an IC50 [1] of 33.6 nM.
Work on `NS(=O)(=O)c1ccccc1NS(=O)(=O)CCc1ccc(Cl)cc1OCCc1cccc2c1CC(=O)N2` [Example 9, 2-(2-(4-chloro-2-(2-(2-oxoindolin-4-yl)ethoxy)phenyl)ethylsulfonamido)benzenesulfonamide] yielded an IC50 (human mPGES-1) of 11.9 nM and an IC50 [1] of 84.3 nM.
With `NS(=O)(=O)c1cc(CO)ccc1NS(=O)(=O)CCc1ccc(Cl)cc1OCCc1ccccc1` [Example 10, 2-(2-(4-chloro-2-phenethoxyphenyl)ethylsulfonamido)-5-(hydroxymethyl)-benzenesulfonamide] the IC50 (human mPGES-1) was 7.97 nM and the IC50 [1] was 10.6 nM.
